Experimental findings from PubChem BioAssay AID330 (DTP/NCI, 2004) are described below.

The test system of this test is P388 leukemia ip, CD2F1 mice, survival T/C. In words: NCI In Vivo Anticancer Drug Screen. Data for tumor model P388 Leukemia (intraperitoneal) in CD2F1 (CDF1) mice. The settings on record: endpoint: median survival time, higher = longer survival. Summed up: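 Mice carrying the transplanted tumor received test compound or vehicle. Survival was recorded in each group, and the value is the treated-group measurement divided by that of the vehicle-treated control group.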

Setting [1] is: dose: 60.0 mg/kg/injection, schedule: Q01DX005 (ip), vehicle: saline with Tween-80.
Where [2] appears, read: dose: 120.0 mg/kg/injection, schedule: Q01DX005 (ip), vehicle: saline with Tween-80.
Where [3] appears, read: dose: 240.0 mg/kg/injection, schedule: Q01DX005 (ip), vehicle: saline with Tween-80.
Where [4] appears, read: dose: 7.5 mg/kg/injection, schedule: Q01DX005 (ip), vehicle: Klucel (hydroxypropylcellulose) (HPC).
The mark [5] stands for this setting: dose: 15.0 mg/kg/injection, schedule: Q01DX005 (ip), vehicle: Klucel (hydroxypropylcellulose) (HPC).
[6] abbreviates: dose: 30.0 mg/kg/injection, schedule: Q01DX005 (ip), vehicle: Klucel (hydroxypropylcellulose) (HPC).
[7] abbreviates: dose: 12.5 mg/kg/injection, schedule: Q01DX005 (ip), vehicle: saline with Tween-80.
The mark [8] stands for this setting: dose: 25.0 mg/kg/injection, schedule: Q01DX005 (ip), vehicle: saline with Tween-80.
Where [9] appears, read: dose: 50.0 mg/kg/injection, schedule: Q01DX005 (ip), vehicle: saline with Tween-80.
Setting [10] is: dose: 100.0 mg/kg/injection, schedule: Q01DX005 (ip), vehicle: saline with Tween-80.
Where [11] appears, read: dose: 25.0 mg/kg/injection, schedule: Q01DX009 (ip), vehicle: saline with Tween-80.
Setting [12] is: dose: 50.0 mg/kg/injection, schedule: Q01DX009 (ip), vehicle: saline with Tween-80.
Where [13] appears, read: dose: 50.0 mg/kg/injection, schedule: Q04DX003 (ip), vehicle: saline with Tween-80.
[14] abbreviates: dose: 100.0 mg/kg/injection, schedule: Q04DX003 (ip), vehicle: saline with Tween-80.
Where [15] appears, read: dose: 200.0 mg/kg/injection, schedule: Q04DX003 (ip), vehicle: saline with Tween-80.
Where [16] appears, read: dose: 50.0 mg/kg/injection, schedule: Q01DX005 (ip), vehicle: Klucel (hydroxypropylcellulose) (HPC).
Setting [17] is: dose: 100.0 mg/kg/injection, schedule: Q01DX005 (ip), vehicle: Klucel (hydroxypropylcellulose) (HPC).
Setting [18] is: dose: 200.0 mg/kg/injection, schedule: Q01DX005 (ip), vehicle: Klucel (hydroxypropylcellulose) (HPC).

Where “and” joins values, the source holds several entries; their conditions need not be identical. Equal values may be shown once. Toxic doses and inconclusive results are not listed.

Take `COc1ccc2c(c1OC)CC(=O)N1CCc3cc4c(cc3C(=O)C21)OCO4` (stereo unspecified): the T/C is, setting by setting: (dose: 2.5 mg/kg/injection, schedule: Q01DX005 (ip), vehicle: saline + Tween-80 + alcohol) 104 % of control; (dose: 5.0 mg/kg/injection, schedule: Q01DX005 (ip), vehicle: saline + Tween-80 + alcohol) 101 % of control; (dose: 10.0 mg/kg/injection, schedule: Q01DX005 (ip), vehicle: saline + Tween-80 + alcohol) 100 % of control; (dose: 20.0 mg/kg/injection, schedule: Q01DX005 (ip), vehicle: saline + Tween-80 + alcohol) 107 % of control.
As for `Cc1ccc(NC(=O)N(C)C)cc1NC(=O)N(C)C`, the T/C under setting [1] was 100 % of control, the T/C under setting [2] was 100 % of control and the T/C under setting [3] is 101 % of control.
`CC(=O)O[C@H]1C[C@@H]2C(COC(=O)CC(C)C)=CO[C@@H](OC(=O)CC(C)C)[C@@H]2[C@@]12CO2`: the T/C reads like this: (dose: 3.75 mg/kg/injection, schedule: Q01DX005 (ip), vehicle: Klucel (hydroxypropylcellulose) (HPC)) 105 % of control; under setting [4], 101 % of control; under setting [5], 88 % of control; under setting [6], 95 % of control; (dose: 60.0 mg/kg/injection, schedule: Q01DX005 (ip), vehicle: Klucel (hydroxypropylcellulose) (HPC)) 101 % of control.
On to `CC1=C(C(=O)Nc2cccc3ccccc23)C(c2cccc([N+](=O)[O-])c2)C(C(=O)Nc2cccc3ccccc23)=C(C)N1`, for which the T/C was 100 % of control under setting [4], 100 % of control under setting [5] and 103 % of control under setting [6].
In the case of `Cc1ccccc1C1(Br)C(=O)c2ccccc2C1=O`, the T/C is 101 % of control (dose: 100.0 mg/kg/injection, schedule: Q04DX002 (ip), vehicle: saline); 101 % of control (dose: 200.0 mg/kg/injection, schedule: Q04DX002 (ip), vehicle: saline); 102 % of control (dose: 400.0 mg/kg/injection, schedule: Q04DX002 (ip), vehicle: saline).
`CSc1nc(COC(=O)NC(C)C)c(COC(=O)NC(C)C)n1Cc1ccccc1`: the T/C runs as follows: under setting [7], 98 % of control; under setting [8], 101 % of control; under setting [9], 100 % of control and 110 % of control; under setting [10], 98 % of control and 111 % of control; (dose: 200.0 mg/kg/injection, schedule: Q01DX005 (ip), vehicle: saline with Tween-80) 116 % of control.
Consider `COc1ccc(C2c3cc4c(cc3OC(N3CCCC3)C2C)OCO4)cc1` (stereo unspecified), for which the T/C was 90 % of control (dose: 7.5 mg/kg/injection, schedule: Q01DX005 (ip), vehicle: saline with Tween-80); 90 % of control (dose: 15.0 mg/kg/injection, schedule: Q01DX005 (ip), vehicle: saline with Tween-80); 94 % of control (dose: 30.0 mg/kg/injection, schedule: Q01DX005 (ip), vehicle: saline with Tween-80); 90 % of control under setting [3].
As to `Cc1cc2c(cc1C)C(=O)c1c(C)ccc(C)c1C2=O`, the T/C is 99 % of control under setting [7]; 99 % of control under setting [8]; 86 % of control and 89 % of control under setting [9].
For the compound `O=C(Nc1ccc(F)cc1)ON=C1CCCCC1`, the T/C was 92 % of control under setting [1], 97 % of control under setting [2] and 90 % of control under setting [3].
With `C/C=C/C(=O)Nc1cccc(OC(=O)NC(C)(C)C)c1`, the T/C was 101 % of control under setting [11]; 100 % of control under setting [12]; 97 % of control (dose: 100.0 mg/kg/injection, schedule: Q01DX009 (ip), vehicle: saline with Tween-80).
As to `C[P+]1(C)CCc2c1ccc1ccccc21`, the T/C under setting [12] is 102 % of control.
For the compound `CCCCCCCCCCCC1=C(O)C(=O)C(Br)=C(O)C1=O`, the T/C reads like this: under setting [9], 92 % of control; under setting [10], 92 % of control.
Take `C=C1C(=O)OC2C1CCC(C)=C1C(=O)C=C(C)C12` (stereo unspecified): the T/C under setting [13] is 109 % of control, the T/C under setting [14] is 116 % of control and the T/C under setting [15] is 119 % of control.
On to `Cn1c2ccccc2c2cc3c(cc21)C(=O)OC3=O`, for which the T/C is 100 % of control (dose: 3.12 mg/kg/injection, schedule: Q01DX005 (ip), vehicle: Klucel (hydroxypropylcellulose) (HPC)); 93 % of control (dose: 6.25 mg/kg/injection, schedule: Q01DX005 (ip), vehicle: Klucel (hydroxypropylcellulose) (HPC)); 90 % of control (dose: 12.5 mg/kg/injection, schedule: Q01DX005 (ip), vehicle: Klucel (hydroxypropylcellulose) (HPC)); 88 % of control under setting [16]; 90 % of control under setting [17].
As to `COC(=O)c1nc(SC)[nH]c1CC(N)=O`, the T/C is 101 % of control under setting [1], 100 % of control under setting [2] and 96 % of control under setting [3].
`C=C/C(C)=C/[C@H](C)C(=O)C[C@H](O)CC1CC(=O)NC(=O)C1`: the T/C is 102 % of control (dose: 6.25 mg/kg/injection, schedule: Q01DX009 (ip), vehicle: saline with Tween-80); 111 % of control (dose: 6.25 mg/kg/injection, schedule: Q04DX003 (ip), vehicle: saline with Tween-80); 118 % of control (dose: 12.5 mg/kg/injection, schedule: Q01DX009 (ip), vehicle: saline with Tween-80); 108 % of control (dose: 12.5 mg/kg/injection, schedule: Q04DX003 (ip), vehicle: saline with Tween-80); 155 % of control under setting [11]; 111 % of control (dose: 25.0 mg/kg/injection, schedule: Q04DX003 (ip), vehicle: saline with Tween-80). Besides, the T/C reads like this: (dose: 35.0 mg/kg/injection, schedule: Q01DX009 (ip), vehicle: saline with Tween-80) 151 % of control; under setting [12], 150 % of control; under setting [13], 111 % of control; (dose: 75.0 mg/kg/injection, schedule: Q01DX009 (ip), vehicle: saline with Tween-80) 168 % of control; (dose: 75.0 mg/kg/injection, schedule: Q01DX009 (ip), vehicle: saline) 158 % of control; under setting [14], 121 % of control. Moreover, the T/C was 106 % of control (dose: 150.0 mg/kg/injection, schedule: Q01DX009 (ip), vehicle: saline); 101 % of control and 121 % of control under setting [15].
Consider `CC(O)C(C(c1ccccc1)N1CCOCC1)N1CCOCC1` (stereo unspecified), for which the T/C by setting is: under setting [16], 99 % of control; under setting [17], 90 % of control; under setting [18], 98 % of control.
As for `CCCCCCCC(=O)Nc1nnc(SCCCCCCCCCCCCSc2nnc(NC(=O)CCCCCCC)s2)s1`, the T/C is 90 % of control under setting [16], 89 % of control under setting [17] and 86 % of control under setting [18].
Take `CCOC(=O)c1ccc(NC(C)=NC(C)(C)C)cc1`: the T/C is, setting by setting: (dose: 50.0 mg/kg/injection, schedule: Q01DX009 (ip), vehicle: Klucel (hydroxypropylcellulose) (HPC)) 93 % of control; (dose: 100.0 mg/kg/injection, schedule: Q01DX009 (ip), vehicle: Klucel (hydroxypropylcellulose) (HPC)) 91 % of control; (dose: 200.0 mg/kg/injection, schedule: Q01DX009 (ip), vehicle: Klucel (hydroxypropylcellulose) (HPC)) 102 % of control.
Consider `C=C(C)CC(C)/C(=N\N(C)C)c1ccccc1` (stereo unspecified), for which the T/C runs as follows: (dose: 50.0 mg/kg/injection, schedule: Q01DX009 (ip), vehicle: saline) 98 % of control; (dose: 100.0 mg/kg/injection, schedule: Q01DX009 (ip), vehicle: saline) 100 % of control; (dose: 200.0 mg/kg/injection, schedule: Q01DX009 (ip), vehicle: saline) 100 % of control.
As to `Cc1ccc2nc(NC(=O)OCc3ccccc3)sc2c1`, the T/C is 97 % of control (dose: 6.25 mg/kg/injection, schedule: Q01DX009 (ip), vehicle: Klucel (hydroxypropylcellulose) (HPC)) and 101 % of control (dose: 12.5 mg/kg/injection, schedule: Q01DX009 (ip), vehicle: Klucel (hydroxypropylcellulose) (HPC)).
Regarding `COc1cc(Br)c(/C=N/O)cc1OC`, the T/C by setting is: under setting [16], 104 % of control; under setting [17], 95 % of control; under setting [18], 91 % of control.
